Test system: live HeLa cells
Assay: Live-cell SRS imaging of organelle-targeted polyynes and co-localization with fluorescent organelle markers
Format: cell-based
Method: FIG. 9 is live-cell SRS imaging of organelle-targeted polyynes and co-localization with fluorescent organelle markers. […] High co-localizations are also observed between organelle-targeted polyynes with commercial fluorescent markers;
HeLa cells are cultured on a glass coverslip in a 4-well plate for 24 h, and […] Carbow2141 Mito is added in the media for 1 h at 37° C. Cells are washed with PBS for three times before imaging. For co-localization, 100 nM MitoTracker Deep Red is used to stain mitochondria for 1 h.
Cells were cultured on a glass coverslip in a 4-well plate for 24 h, and 4 μM Carbow2141 Lyso is added to cells for 30 min at 37° C. Cells are washed with PBS for three times before imaging. For co-localization, 100 nM LysoTracker Red (Invitrogen, L7528) is used to stain lysosome for 30 min.
Cell are incubated with 3 μM Carbow2141 PM in the culture media for 20 min at 37° C. and are washed with PBS for three times before imaging. For co-localization, 0.5 μg/mL CellMask Deep Red (Invitrogen, C10046) is used to stain cell membrane for 5 min.
Cells were cultured on a glass coverslip in a 4-well plate for 24 h and incubated with 10 μM Carbow2226 ER for 2 h at 37° C. Cells were washed with PBS for three times before imaging. For colocalization, 1 μM ERTracker Green (Invitrogen, E34251) was used to stain endoplasmic reticulum for 2 h. […]

SMILES: O=C(NCCC[P+](c1ccccc1)(c1ccccc1)c1ccccc1)OCc1ccc(C#CC#CC#CC#Cc2ccccc2)cc1 [4-yne Mito]
- organelle localization / co-localization with fluorescent markers: specific localization to mitochondria

Reference: patent US12065692B2, “Optical super-multiplexing by polyynes” (The Trustees of Columbia University in the City of New York, priority 2017, dated 2024)
